From patent publication EP0044495B1, “16-Beta ethyl steroids, compositions containing them and process for their preparation” (SCHERING AKTIENGESELLSCHAFT, priority 1980, dated 1982)

System: Samenblasen- und Prostatagewichts von Ratten
Assay: Antiandrogenic effect: inhibition of the testosterone propionate-induced increase in seminal vesicle and prostate weight of rats after subcutaneous administration
Assay type: in vivo
Settings: for Testosteronpropionat-Hemmung Prostata / Testosteronpropionat-Hemmung Samenblase: rats, subcutaneous administration, Dosis 0,3 mg/Tag per animal; for Testosteronpropionat-Hemmung Prostata: prostate weight; for Testosteronpropionat-Hemmung Samenblase: seminal vesicle weight
From the text: Die neuen Verbindungen der allgemeinen Formel 1 besitzen starke antiandrogene Wirkung.

SMILES	Testosteronpropionat-Hemmung Prostata [%]	Testosteronpropionat-Hemmung Samenblase [%]	antiandrogene Wirkung (result in words, comparison of A with B at 0,3 mg pro Tier und Tag, or general statement)
CC[C@H]1C[C@H]2[C@@H]3CCC4=CC(=O)CC[C@@H]4[C@H]3CC[C@]2(C)[C@H]1O [B, 16ß-Ethyl-17ß-hydroxy-4-estren-3-on, reference compound]	0	13	
CC[C@H]1C[C@H]2[C@@H]3CCC4=CC(=O)CCC4=C3CC[C@]2(C)[C@H]1O [A, 16ß-Ethyl-17ß-hydroxy-4,9(10)-estradien-3-on]	18	34	signifikant wirksamer
